The term Kd denotes the free concentration of one partner at which half of the binding sites on the other are occupied at equilibrium, for simple one-to-one binding.

The values that follow come from patent publication US20040147788A1, “Stilbene derivatives and their use as aryl hydrocarbon receptor antagonistic ligands” (priority 2002, published 2004).

One series concerns the target T1, AhR (Homo sapiens, UniProt P35869).
T1 sequence (P35869 11-848): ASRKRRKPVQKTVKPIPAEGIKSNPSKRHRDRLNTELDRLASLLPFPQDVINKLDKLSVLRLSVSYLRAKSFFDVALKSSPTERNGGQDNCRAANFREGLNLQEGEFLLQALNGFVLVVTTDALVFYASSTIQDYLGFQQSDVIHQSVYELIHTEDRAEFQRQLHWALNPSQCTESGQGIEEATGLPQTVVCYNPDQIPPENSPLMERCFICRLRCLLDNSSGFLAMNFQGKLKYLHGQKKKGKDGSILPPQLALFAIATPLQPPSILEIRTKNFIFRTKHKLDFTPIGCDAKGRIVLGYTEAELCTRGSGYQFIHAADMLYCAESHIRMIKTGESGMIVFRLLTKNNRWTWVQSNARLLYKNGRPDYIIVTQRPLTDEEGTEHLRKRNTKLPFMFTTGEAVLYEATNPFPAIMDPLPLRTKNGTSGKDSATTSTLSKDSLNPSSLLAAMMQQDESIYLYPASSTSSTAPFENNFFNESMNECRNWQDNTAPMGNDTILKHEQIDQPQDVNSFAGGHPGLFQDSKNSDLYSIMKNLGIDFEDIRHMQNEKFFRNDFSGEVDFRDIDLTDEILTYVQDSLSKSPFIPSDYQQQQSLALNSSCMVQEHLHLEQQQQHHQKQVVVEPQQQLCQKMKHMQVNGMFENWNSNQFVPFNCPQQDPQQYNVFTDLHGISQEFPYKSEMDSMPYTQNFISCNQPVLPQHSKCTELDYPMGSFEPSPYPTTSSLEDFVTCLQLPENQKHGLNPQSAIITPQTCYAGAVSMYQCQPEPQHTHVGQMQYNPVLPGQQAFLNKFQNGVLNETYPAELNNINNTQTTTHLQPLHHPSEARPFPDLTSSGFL
The following applies: in humans; cited from earlier work.

For a further series, the system named is CYP1A1/AHH. The note with it: read-out: ED50 for induction of CYP1A1/AHH; porcine aortic endothelial; cited from earlier work.
For another series, the target named is T2, ER (Homo sapiens, UniProt P03372).
T2 construct: stably transfecting MCF-7 cells with the ERE-globin-tk-luc-SV-Neo plasmid; endogenous in cells; host or cells: MCF-7-Luc (MCF-7 stably transfected with ERE-globin-tk-luc-SV-Neo)
T2 sequence (P03372 1-595): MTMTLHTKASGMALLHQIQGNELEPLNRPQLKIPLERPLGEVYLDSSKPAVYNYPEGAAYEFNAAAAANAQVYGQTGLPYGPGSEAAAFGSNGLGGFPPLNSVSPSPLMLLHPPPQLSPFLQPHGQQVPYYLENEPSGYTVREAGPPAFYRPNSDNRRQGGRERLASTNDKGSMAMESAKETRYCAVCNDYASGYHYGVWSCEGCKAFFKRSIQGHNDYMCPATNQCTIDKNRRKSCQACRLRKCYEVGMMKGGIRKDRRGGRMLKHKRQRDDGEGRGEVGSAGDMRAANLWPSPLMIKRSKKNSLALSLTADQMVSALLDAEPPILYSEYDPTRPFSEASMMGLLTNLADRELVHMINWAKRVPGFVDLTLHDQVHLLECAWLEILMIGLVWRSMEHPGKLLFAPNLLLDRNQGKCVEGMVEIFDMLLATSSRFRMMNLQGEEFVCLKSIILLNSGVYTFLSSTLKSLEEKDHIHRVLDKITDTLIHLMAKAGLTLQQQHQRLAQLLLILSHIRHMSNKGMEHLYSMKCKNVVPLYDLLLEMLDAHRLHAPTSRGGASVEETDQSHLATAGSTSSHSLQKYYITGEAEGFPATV
Nature of the series: ER-mediated transactivation, ERE-driven Luciferase reporter stable cell line (MCF-7-Luc). Note: key: Ago: agonist; N.M.: not measurable. The following applies: trans-stilbenes. The format is cell-based. How it is done:
The human adenocarcinoma breast cell line MCF-7 was obtained from the American Tissue Culture Collection (Rockville, USA). The cells were established by stably transfecting MCF-7 cells with the ERE-globin-tk-luc-SV-Neo plasmid and thus expressed luciferase in an estrogen dependent manner MCF-7-Luc. […] Cells were incubated at 37° C. in a humidified 5% CO2 incubator. For experiments, cells were grown for 5 days in phenol red-free medium, containing 5% dextran-coated charcoal treated FCS (DCC-FCS). Medium was changed after 2 days. At day 5, cells were treated or not with compounds. Compounds were dissolved in ethanol.
For each condition, 15.103 cells were seeded per well in 12-well plates and treated, as described above, during 16 hours in a final volume of 0.5 mL. At the end of the treatment, cells were washed with PBS and lysed in 150 μl of lysis buffer (Promega, Charbonnieres, France). Luciferase activity was measured using the luciferase assay reagent (Promega), according to the manufacturer's instructions. Protein concentrations were measured using Bradford technique, to normalize the luciferase activity data. For each condition, average luciferase activity was calculated from the data of 3 independent wells.
(In a reporter assay the amount or activity of a reporter protein is the signal.)

The next series has as its system A549 cell line. Put plainly: Cytotoxicity, MTT colorimetric assay. The format is cell-based, human. As to the method:
Cytotoxicity was evaluated on the A549 cell line. […] A MTT colorimetric assay was employed as described in (5) according to the established procedure 1. Drug stock solutions were prepared in EtOH and the final solvent concentration was=1% EtOH(v/v), a concentration without effect on cell replication. […] Cells were cultured at 37° C. in RPMI-1640 medium with streptomycin/penicillin and 5% (v/v) FCS in a humidified atmosphere containing 5% CO2. Initial seeding densities varied among the cell lines to ensure a final absorbance reading in control cultures in the range of 0.7-1 […] units. After the addition of the samples to the cell culture, the cells were incubated for 5 days before the MTT reagent was added. Each test was performed in duplicate and absorbance readings varied no more than 5%.

Molecules are shown by their SMILES.

In the case of `Clc1cc2c(cc1Cl)Oc1cc(Cl)c(Cl)cc1O2` [TCDD, 2,3,7,8-tetrachlorodibenzo-p-dioxin], the dissociation constant (Kd) at AhR is 1 nM. Besides, the EC50 with CYP1A1/AHH was 0.015 nM.
On to `Oc1ccc(C=Cc2cc(O)cc(O)c2)cc1` [Resveratrol, 3,5,4′-trihydroxystilbene, reference compound], for which the “ER T.A. (transcriptional activity)” value on ER was “Ago”. Further, the “cytotoxicity: not toxic up to concentration” value in the series on A549 cell line was over 10 µM.
